Measured values as given in publication PMC7395068, “The evolution of strategies to minimise the risk of human drug-induced liver injury (DILI) in drug discovery and development” (Archives of Toxicology, 2020).
Where two headings read alike, the source gives them in different places.

What was measured:
[1] = tested on: isolated mouse liver mitochondria; settings: In vitro Assay; ref Porceddu 2012; cited from earlier work
[2] = tested on: primary human hepatocytes, NIH3T3 fibroblasts, BSEP, CYP3A4; settings: cited from earlier work
[3] = tested on: hLiMTs; settings: cited from earlier work
[4] = tested on: HepG2 cells, primary human hepatocytes; settings: In vitro Assay; ref Garside 2014; cited from earlier work
[5] = tested on: rBsep; settings: In vitro Assay; ref Dawson 2012; cited from earlier work
[6] = tested on: PHH; settings: In vitro Assay; ref Albrecht 2019; cited from earlier work
[7] = tested on: HepaRG spheroids; assay: Combined HCI (HCS) and cellular ATP 3D assay in HepaRG spheroids; settings: for AC50 / minimal effective concentration: Homo sapiens
[8] = tested on: HepG2; set-up: method as in Albrecht 2019; settings: In vitro Assay; ref Albrecht 2019; cited from earlier work
[9] = tested on: THLE-Null and THLE-3A4 cells; settings: In vitro Assay; ref Gustafsson 2014; cited from earlier work
[10] = tested on: HepG2 C3A spheroid, BSEP, Glu/Gal in HepG2 cells, bioactivation; settings: cited from earlier work
[11] = plasma free fraction; cited from earlier work
[12] = tested on: PHH; settings: cited from earlier work
[13] = tested on: hLiMTs; assay: Combined HCI (HCS) and cellular ATP 3D assay in hLiMTs; settings: for AC50 / minimal effective concentration: Homo sapiens
[14] = ref Chen 2011; cited from earlier work
[15] = tested on: THLE or HepG2 cells, isolated mitochondria, BSEP; settings: cited from earlier work
[16] = read-out: Human plasma Cmax; total plasma Cmax.tot, median of 9 literature references; cited from earlier work
[17] = tested on: HepG2 cells; settings: cited from earlier work
[18] = cited from earlier work
[19] = cited from earlier work; remark: listed apart in the source
[20] = Plasma free fraction (fu) and unbound Cmax (Cmax,u); assay type: in vitro ADME, human; settings: unbound plasma Cmax
[21] = In vitro Assay, ref Schadt 2015
[22] = In vitro Assay, ref Proctor 2017
[23] = Microtissue model structural based (HCI), combined HCS and ATP, MEC < 25 × Cmax.tot cut-off
[24] = Modeled in vitro assays (cytotoxicity, mitochondrial dysfunction, BSEP), ref Aleo et al. 2019

HepaRG <25x Avg Cmax ATP ([7]; HepaRG, ATP endpoint, cut-off <25x Avg Cmax): +ve | HepaRG <100x Avg Cmaxu ATP ([7]; HepaRG, ATP endpoint, cut-off <100x Avg Cmaxu): +ve (<100x Avg Cmaxu) | HepaRG <25x Avg Cmax HCS ([7]; HepaRG, HCS endpoints, cut-off <25x Avg Cmax): +ve | HepaRG <100x Avg Cmaxu HCS ([7]; HepaRG, HCS endpoints, cut-off <100x Avg Cmaxu): +ve (<100x Avg Cmaxu) | HepaRG <25x Avg Cmax All ([7]; HepaRG, all endpoints (ATP and HCS), cut-off <25x Avg Cmax): +ve | HepaRG Cmax max All ([7]; HepaRG, all endpoints, Cmax max used): +ve | HepaRG Cmax min All ([7]; HepaRG, all endpoints, Cmax min used): +ve | HepaRG <10 uM All ([7]; HepaRG, all endpoints, cut-off <10 uM): -ve | HepaRG <100x Avg Cmaxu All ([7]; HepaRG, all endpoints, cut-off <100x Avg Cmaxu): +ve (<100x Avg Cmaxu) | hLiMTs <25x Avg Cmax ATP ([13]; hLiMTs, ATP endpoint, cut-off <25x Avg Cmax): +ve | hLiMTs <100x Avg Cmaxu ATP ([13]; hLiMTs, ATP endpoint, cut-off <100x Avg Cmaxu): +ve (<100x Avg Cmaxu) | hLiMTs <25x Avg Cmax HCS ([13]; hLiMTs, HCS endpoints, cut-off <25x Avg Cmax): +ve | hLiMTs <100x Avg Cmaxu HCS ([13]; hLiMTs, HCS endpoints, cut-off <100x Avg Cmaxu): +ve (<100x Avg Cmaxu) | hLiMTs <25x Avg Cmax All ([13]; hLiMTs, all endpoints (ATP and HCS), cut-off <25x Avg Cmax): +ve | hLiMTs Cmax max All ([13]; hLiMTs, all endpoints, Cmax max used): +ve | hLiMTs Cmax min All ([13]; hLiMTs, all endpoints, Cmax min used): +ve | hLiMTs <10 uM All ([13]; hLiMTs, all endpoints, cut-off <10 uM): -ve | hLiMTs <100x Avg Cmaxu All ([13]; hLiMTs, all endpoints, cut-off <100x Avg Cmaxu): +ve (<100x Avg Cmaxu) | Human plasma Cmax,u [20]: 12.190 µM
Structure (SMILES): NC(=O)N1c2ccccc2C=Cc2ccccc21 [carbamazepine, reference compound]
in vitro data EC2<=1x Cmax [1]: +VE | in vitro data EC20<=2uM [1]: +VE | DILI in vitro assay prediction, Schadt (2015) ([2]; BSEP & Metabolism based, ref Schadt et al. 2015): +VE | Cellular toxicity (3T3 cells) [2, 21]: -VE | Combined Assay [2, 21]: +VE | GSH adduct HML [2, 21]: +VE | Hepatocyte cellular toxicity [2, 21]: -VE | MitoTox 3T3 [2, 21]: -VE | TDI CYP3A4 [2, 21]: -VE | hBSEP inhibition [2, 21]: -VE | hLiMTs ATP <100uM [3, 22]: -VE | hLiMTs/100xCmax, Proctor (2017) ([3]; hLiMTs, ATP, IC50 < 100 × Cmax.tot, ref Proctor et al. 2017): +VE (IC50 < 100 × Cmax.tot) | hLiMTs/100uM, Proctor (2017) ([3]; hLiMTs, ATP, IC50 threshold 100 µM, ref Proctor et al. 2017): -VE | Cluster 1-6 +VE Assay [4]: -VE | Inhibition of rBsep cutoff<1& cmax u>.2 [5]: -VE | Inhibition of rBsep cutoff<3 [5]: -VE | Cytotoxicity PHH 48 hrs [6]: +VE | AC50 ([7]; HepaRG, read-out: ATP endpoint AC50): 159 µM | minimal effective concentration ([7]; HepaRG, read-out: ATP endpoint MEC): 81.5 µM | AC50 ([7]; HepaRG, read-out: HCS endpoint AC50): 343 µM | minimal effective concentration ([7]; HepaRG, read-out: HCS endpoint MEC): 172 µM | DILI prediction HepaRG spheroids (HCS-MEC) [7, 23]: +VE (MEC < 25 × Cmax.tot cut-off) | Cytotoxicity HepG2 48 hrs [8]: +VE | THLE-Null [9]: -VE | THLE-Null/3A4 [9]: -VE | Bayesian Machine Learning DILI prediction, Williams (2019) ([10]; Bayesian modeling, ref Williams et al. 2019): +VE | Bayesian Machine Learning ([10]; In vitro Assay, ref Williams 2019): +VE | fu [11]: 0.240 | PHH/100xCmax, Proctor (2017) ([12]; 2D PHH, ATP, IC50 < 100 × Cmax.tot, ref Proctor et al. 2017): -VE | PHH/100uM, Proctor (2017) ([12]; 2D PHH, ATP, IC50 threshold 100 µM, ref Proctor et al. 2017): -VE | PHH ATP <100uM [12, 22]: -VE | AC50 ([13]; read-out: ATP endpoint AC50): 145 µM | minimal effective concentration ([13]; read-out: ATP endpoint MEC): 73.6 µM | AC50 ([13]; read-out: HCS endpoint AC50): 226 µM | minimal effective concentration ([13]; read-out: HCS endpoint MEC): 109 µM | DILI prediction hLiMTs (HCS-MEC) [13, 23]: +VE (MEC < 25 × Cmax.tot cut-off) | DILI Score (FDA) (1-8) [14]: 7 | Partition Hybrid HRM Score ([15]; In vitro Assay, ref Aleo 2019): +VE | Ro2 Hybrid HRM Score ([15]; In vitro Assay, ref Aleo 2019): +VE | Partition Hybrid HRM Score ≥4, Aleo (2019) [15, 24]: +VE (Partition Hybrid HRM Score ≥4) | Partition Hybrid HRM Score ≥8, Aleo (2019) [15, 24]: -VE | Rule of Two hybrid HRM Score ≥3, Aleo (2019) [15, 24]: +VE (Rule of Two hybrid HRM Score ≥3) | Rule of Two hybrid HRM Score ≥8, Aleo (2019) [15, 24]: -VE | Cmax [16]: 50.8 µM | Structural based (HCI) ([17]; In vitro Assay, ref Tolosa 2012): +VE | DILI in vitro assay prediction, Tolosa (2012) ([17]; Structural based (HCI), HepG2, ref Tolosa et al. 2012): +VE | DILI severity category (Chen et al. [2016]) ([18]; LTKB DILIrank category, ref Chen et al. 2016): Most | DILI severity category (Chen 2016) ([18]; human DILI classification, LTKB DILIrank, ref Chen et al. 2016): Most | DILI severity category ([18]; human DILI severity, ref Chen et al.): Most | DILI +VE (5-8), DILI -VE (-4) ([18]; ref Chen 2016): +VE | DILI severity category ([18]; ref Chen 2016): vMost-DILI-Concern | Assigned DILI category ([19]; Chen et al. 2016 or literature alignment, ref Chen et al. 2016): 3 | In vivo DILI ([19]; […]): +VE | In vivo DILI ([19]; ref Albrecht 2019): +VE | In vivo DILI ([19]; ref Aleo 2019): +VE | In vivo DILI ([19]; ref Dawson 2012): +VE | In vivo DILI ([19]; ref Garside 2014): +VE | In vivo DILI ([19]; ref Gustafsson 2014): +VE | In vivo DILI ([19]; ref Porceddu 2012): +VE | In vivo DILI ([19]; ref Proctor 2017): +VE | In vivo DILI ([19]; ref Schadt 2015): +VE | In vivo DILI ([19]; ref Tolosa 2012): +VE | In vivo DILI ([19]; ref Williams 2019): +VE
